Measured values: patent publication US10800791B2, “Triazole ACC inhibitors and uses thereof” (Gilead Apollo, LLC, priority 2015, dated 2020)
Values after ≈ are worked out from the molar mass of the structure shown. Where two headings read alike, the source gives them in different places.

Assays:
C. albicans = assay: Antifungal Activity Assay (broth microtiter MIC), C. albicans; format: cell-based, Candida albicans; details: Candida albicans, ATCC90028, 48 h
How it was run: (§1)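 Colonies from 24 h Sabouraud dextrose agar plates (35° C) are suspended in RPMI 1640+MOPS and diluted to give 2.5×10^3 CFU/mL in the wells. Plates are set up per CLSI M27-A3. Visual MIC is recorded at 48 h.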

C. krusei = assay: Antifungal Activity Assay (broth microtiter MIC), C. krusei; format: cell-based, Candida krusei; details: Pichia kudriavzevii, ATCC6258, 48 h
How it was run: as §1

Botrtyis cinerea (Bc) = assay: Growth inhibition assay of fungal pathogens, Bc; format: cell-based; details: 48 h
How it was run: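 Spores diluted in 17% V8 liquid media and incubated with compound at final 50, 10, 2 ppm or 2, 0.4, 0.08 ppm (2% DMSO). OD600 plus visual ratings at 24 and 48 hours, blank-subtracted; percent growth inhibition from 48 h readings relative to 2% DMSO control.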

[1] = read-out: MIC, C. albicans ATCC 90028, Table 3a, 3 replicates, MIC recorded at 48 h
[2] = read-out: MIC, C. albicans ATCC 90028, Table 3b (additional results), 3 replicates, MIC recorded at 48 h
[3] = read-out: MIC, C. krusei ATCC 6258, Table 3a, 3 replicates, MIC recorded at 48 h
[4] = read-out: MIC, C. krusei ATCC 6258, Table 3b (additional results), 3 replicates, MIC recorded at 48 h
[5] = read-out: Concentration at 90% Inhibition Bc, Botrtyis cinerea, growth inhibition at 48 hours vs 2% DMSO control
[6] = read-out: Concentration at 90% Inhibition Bc, Botrtyis cinerea, growth inhibition vs 2% DMSO control at 48 hours
[7] = Table 3a, ATCC 90028, 3 replicates, MIC recorded at 48 h, read-out: MIC, C. albicans ATCC 90028
[8] = Table 3b (additional results), ATCC 90028, 3 replicates, MIC recorded at 48 h, read-out: MIC, C. albicans ATCC 90028
[9] = Table 3a, ATCC 6258, 3 replicates, MIC recorded at 48 h, read-out: MIC, C. krusei ATCC 6258
[10] = Table 3b (additional results), ATCC 6258, 3 replicates, MIC recorded at 48 h, read-out: MIC, C. krusei ATCC 6258
[11] = Botrtyis cinerea, growth inhibition at 48 hours vs 2% DMSO control, read-out: Concentration at 90% Inhibition Bc
[12] = Botrtyis cinerea, growth inhibition vs 2% DMSO control at 48 hours, read-out: Concentration at 90% Inhibition Bc

Structure (SMILES) | MIC (C. albicans; [1]) [µg/mL] | MIC (C. albicans; [2]) [µg/mL] | MIC (C. krusei; [3]) [µg/mL] | MIC (C. krusei; [4]) [µg/mL] | IC90 (Botrtyis cinerea (Bc); [5]) [µg/mL] | IC90 (Botrtyis cinerea (Bc); [6]) [µg/mL] | MIC (C. albicans; [7]) [µg/mL] | MIC (C. albicans; [8]) [µg/mL] | MIC (C. krusei; [9]) [µg/mL] | MIC (C. krusei; [10]) [µg/mL] | IC90 (Botrtyis cinerea (Bc); [11]) [µg/mL] | IC90 (Botrtyis cinerea (Bc); [12]) [µg/mL]
COc1ccc(F)cc1[C@H](Cn1c(=O)n(C(C)(C)C(=O)NC(C)C)c(=O)c2c(C)c(-n3nccn3)sc21)OCCN(C)C [Compound I-76, (R)-2-(1-(2-(2-(dimethylamino)ethoxy)-2-(5-fluoro-2-methoxyphenyl)ethyl)-5-methyl-2,4-dioxo-6-(2H-1,2,3-triazol-2-yl)-1,4-dihydro-thieno[2,3-d]pyrimidin-3(2H)-yl)-N-isopropyl-2-methylpropanamide] | 2.1 to 4 (≈ 3.41 to 6.5 µM) | 1.01 to 2 (≈ 1.64 to 3.25 µM) | 2.1 to 4 (≈ 3.41 to 6.5 µM) | 0.25 to 1 (≈ 0.406 to 1.62 µM) | > 50 | > 50 |  |  |  |  |  | 
COc1ccc(F)cc1[C@H](Cn1c(=O)n([C@@H](C)C(=O)NC2CCC2)c(=O)c2c(C)c(-n3nccn3)sc21)OCCO [Compound I-77, (S)—N-cyclobutyl-2-(1-((R)-2-(5-fluoro-2-methoxyphenyl)-2-(2-hydroxyethoxy)ethyl)-5-methyl-2,4-dioxo-6-(2H-1,2,3-triazol-2-yl)-1,4-dihydrothieno[2,3-d]pyrimidin-3(2H)-yl)propanamide] |  |  |  |  |  |  | 1.1 to 2 (≈ 1.88 to 3.41 µM) | 2.01 to 4 (≈ 3.43 to 6.82 µM) | 2.1 to 4 (≈ 3.58 to 6.82 µM) | 0.25 to 1 (≈ 0.426 to 1.7 µM) | 0.4 (≈ 0.682 µM) | 0.4 (≈ 0.682 µM)
COc1ccc(F)cc1[C@H](Cn1c(=O)n([C@@H](C)C(=O)N(C)C(C)C)c(=O)c2c(C)c(-n3nccn3)sc21)OCCO [Compound I-78, (S)-2-(1-((R)-2-(5-fluoro-2-methoxyphenyl)-2-(2-hydroxy-ethoxy)ethyl)-5-methyl-2,4-dioxo-6-(2H-1,2,3-triazol-2-yl)-1,4-dihydrothieno[2,3-d]pyrimidin-3(2H)-yl)-N-isopropyl-N-methylpropanamide] |  |  |  |  |  |  | 2.1 to 4 (≈ 3.57 to 6.8 µM) | 1.01 to 2 (≈ 1.72 to 3.4 µM) | 2.1 to 4 (≈ 3.57 to 6.8 µM) | 1.01 to 2 (≈ 1.72 to 3.4 µM) | 0.4 (≈ 0.68 µM) | 0.4 (≈ 0.68 µM)
COCCO[C@@H](Cn1c(=O)n(CC(=O)N2CCCC2)c(=O)c2c(C)c(-n3nccn3)sc21)c1cc(F)ccc1OC [Compound I-79, (R)-1-(2-(5-fluoro-2-methoxyphenyl)-2-(2-methoxy-ethoxy)ethyl)-5-methyl-3-(2-oxo-2-(pyrrolidin-1-yl)ethyl)-6-(2H-1,2,3-tria-zol-2-yl)thieno[2,3-d]pyrimidine-2,4(1H,3H)-dione] |  |  |  |  |  |  | 2.1 to 4 (≈ 3.58 to 6.82 µM) | > 4.01 | 2.1 to 4 (≈ 3.58 to 6.82 µM) | > 4.01 | 2 (≈ 3.41 µM) | 2 (≈ 3.41 µM)
COCCO[C@@H](Cn1c(=O)n(CC(=O)NC(C)C)c(=O)c2c(C)c(-n3nccn3)sc21)c1cc(F)ccc1OC [Compound I-80, (R)-2-(1-(2-(5-fluoro-2-methoxyphenyl)-2-(2-methoxy-ethoxy)ethyl)-5-methyl-2,4-dioxo-6-(2H-1,2,3-triazol-2-yl)-1,4-dihydro-thieno[2,3-d]pyrimidin-3(2H)-yl)-N-isopropylacetamide] | 2.1 to 4 (≈ 3.65 to 6.96 µM) | > 4.01 | 2.1 to 4 (≈ 3.65 to 6.96 µM) | > 4.01 | > 50 | > 50 |  |  |  |  |  | 
COc1ccc(F)cc1[C@H](Cn1c(=O)n(CC(=O)N2CCCC2)c(=O)c2c(C)c(-n3nccn3)sc21)OCCO [Compound I-81, (R)-1-(2-(5-fluoro-2-methoxyphenyl)-2-(2-hydroxy-ethoxy)ethyl)-5-methyl-3-(2-oxo-2-(pyrrolidin-1-yl)ethyl)-6-(2H-1,2,3-triazol-2-yl)thieno[2,3-d]pyrimidine-2,4(1H,3H)-dione] |  |  |  |  |  |  | 2.1 to 4 (≈ 3.67 to 6.99 µM) | 2.01 to 4 (≈ 3.51 to 6.99 µM) | 2.1 to 4 (≈ 3.67 to 6.99 µM) | > 4.01 | 0.08 (≈ 0.14 µM) | 0.08 (≈ 0.14 µM)
COc1ccc(F)cc1[C@H](Cn1c(=O)n(CC(=O)NC(C)C)c(=O)c2c(C)c(-n3nccn3)sc21)OCCO [Compound I-82, (R)-2-(1-(2-(5-fluoro-2-methoxyphenyl)-2-(2-hydroxy-ethoxy)ethyl)-5-methyl-2,4-dioxo-6-(2H-1,2,3-triazol-2-yl)-1,4-dihydro-thieno[2,3-d]pyrimidin-3(2H)-yl)-N-isopropylacetamide] | 2.1 to 4 (≈ 3.75 to 7.14 µM) | 2.01 to 4 (≈ 3.59 to 7.14 µM) | 2.1 to 4 (≈ 3.75 to 7.14 µM) | 2.01 to 4 (≈ 3.59 to 7.14 µM) | 2 (≈ 3.57 µM) | 2 (≈ 3.57 µM) |  |  |  |  |  | 
COc1ccc(F)cc1[C@H](Cn1c(=O)n([C@H](C)C(=O)NC2CCC2)c(=O)c2c(C)c(-n3nccn3)sc21)OCCO [Compound I-84, (R)—N-cyclobutyl-2-(1-((R)-2-(5-fluoro-2-methoxyphenyl)-2-(2-hydroxyethoxy)ethyl)-5-methyl-2,4-dioxo-6-(2H-1,2,3-triazol-2-yl)-1,4-dihydrothieno[2,3-d]pyrimidin-3(2H)-yl)propanamide] |  |  |  |  |  |  | 1.1 to 2 (≈ 1.88 to 3.41 µM) | 2.01 to 4 (≈ 3.43 to 6.82 µM) | 0.25 to 1 (≈ 0.426 to 1.7 µM) | 0.25 to 1 (≈ 0.426 to 1.7 µM) | 0.4 (≈ 0.682 µM) | 0.4 (≈ 0.682 µM)
